Measured values from BindingDB's records for PubMed 39655996 (AstraZeneca).

Target: Poly [ADP-ribose] polymerase 2 (Homo sapiens, UniProt Q9UGN5)
Experiment: Inhibition of N-terminal 6His-tagged full-length recombinant human PARP2 by fluorescence anisotropy assay

Chain of Poly [ADP-ribose] polymerase 2 (Q9UGN5 whole entry): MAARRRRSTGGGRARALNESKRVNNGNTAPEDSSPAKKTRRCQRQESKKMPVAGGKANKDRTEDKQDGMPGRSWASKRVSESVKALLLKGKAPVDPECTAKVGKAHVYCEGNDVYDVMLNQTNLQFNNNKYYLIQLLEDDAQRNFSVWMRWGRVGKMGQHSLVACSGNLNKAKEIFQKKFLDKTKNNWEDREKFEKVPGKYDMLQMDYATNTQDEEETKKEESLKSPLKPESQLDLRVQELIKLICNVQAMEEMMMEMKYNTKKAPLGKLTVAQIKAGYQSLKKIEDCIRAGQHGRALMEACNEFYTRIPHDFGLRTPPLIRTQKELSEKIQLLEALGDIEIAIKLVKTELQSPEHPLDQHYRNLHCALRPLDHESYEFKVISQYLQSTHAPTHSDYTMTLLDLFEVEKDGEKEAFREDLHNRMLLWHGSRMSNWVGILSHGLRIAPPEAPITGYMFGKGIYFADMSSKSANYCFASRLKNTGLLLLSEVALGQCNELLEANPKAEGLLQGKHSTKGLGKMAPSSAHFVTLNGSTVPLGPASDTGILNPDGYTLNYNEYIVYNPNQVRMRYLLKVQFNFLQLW

IC50: > 100 µM
SMILES: CNC(=O)c1ccc(N2CCN(Cc3ccc4nc(C)c(=O)[nH]c4c3F)CC2)c(C)n1 [5-[4-[(5-fluoro-2-methyl-3-oxo-4H-quinoxalin-6-yl)methyl]piperazin-1-yl]-N,6-dimethyl-pyridine-2-carboxamide]
